PubChem BioAssay AID2060905 (Molecular Pharmacology Branch, DTP, NCI, 2025)

System: 282377-053-R-J1-PDC complex spheroid viability
Assay: Anticancer human tumor 282377-053-R-J1-PDC patient-derived colon adenocarcinoma cell line growth inhibition [RAS]
Details: for IC50: curve of first compound; for viability, T/C: stronger effect = lower value; active = viability on the fitted dose curve at most 10% of control; inactive = the rest
Procedure, shortened: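 Tumour cells grown as complex spheroids with HUVEC endothelial cells and mesenchymal stem cells, treated with RAS pathway inhibitor combinations. Each agent spans half-log steps from near clinical Cmax, or 10 microM where Cmax is unknown.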

[1] = second compound 0.000949 µM, first compound 0.00316 µM
[2] = second compound 0.000949 µM, first compound 0.01 µM
[3] = second compound 0.000949 µM, first compound 0.0316 µM
[4] = second compound 0.000949 µM, first compound 0.1 µM
[5] = second compound 0.000949 µM, first compound 0.316 µM
[6] = second compound 0.000949 µM, first compound 1 µM
[7] = second compound 0.003 µM, first compound 0.00316 µM
[8] = second compound 0.003 µM, first compound 0.01 µM
[9] = second compound 0.003 µM, first compound 0.0316 µM
[10] = second compound 0.003 µM, first compound 0.1 µM
[11] = second compound 0.003 µM, first compound 0.316 µM
[12] = second compound 0.003 µM, first compound 1 µM
[13] = second compound 0.00949 µM, first compound 0.00316 µM
[14] = second compound 0.00949 µM, first compound 0.01 µM
[15] = second compound 0.00949 µM, first compound 0.0316 µM
[16] = second compound 0.00949 µM, first compound 0.1 µM
[17] = second compound 0.00949 µM, first compound 0.316 µM
[18] = second compound 0.00949 µM, first compound 1 µM
[19] = second compound 0.03 µM, first compound 0.00316 µM
[20] = second compound 0.03 µM, first compound 0.01 µM
[21] = second compound 0.03 µM, first compound 0.0316 µM
[22] = second compound 0.03 µM, first compound 0.1 µM
[23] = second compound 0.03 µM, first compound 0.316 µM
[24] = second compound 0.03 µM, first compound 1 µM
[25] = second compound 0.0949 µM, first compound 0.00316 µM
[26] = second compound 0.0949 µM, first compound 0.01 µM
[27] = second compound 0.0949 µM, first compound 0.0316 µM
[28] = second compound 0.0949 µM, first compound 0.1 µM
[29] = second compound 0.0949 µM, first compound 0.316 µM
[30] = second compound 0.0949 µM, first compound 1 µM
[31] = second compound 0.3 µM, first compound 0.00316 µM
[32] = second compound 0.3 µM, first compound 0.01 µM
[33] = second compound 0.3 µM, first compound 0.0316 µM
[34] = second compound 0.3 µM, first compound 0.1 µM
[35] = second compound 0.3 µM, first compound 0.316 µM
[36] = second compound 0.3 µM, first compound 1 µM
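Note: spheroids exposed to agents for seven days before readout.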
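Throughout, for viability, T/C: luminescence viability as percent of DMSO vehicle control wells.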

CC1(C)CCC(Nc2ncc(C(F)(F)F)c(-c3c[nH]c4c(P(C)(C)=O)c(C#N)ccc34)n2)CN1 (stereo unspecified) + CCn1c(-c2cc(N3CCN(C)CC3)cnc2C(C)OC)c2c3cc(ccc31)-c1csc(n1)CC(NC(=O)C1CC1C)C(=O)N1CCCC(N1)C(=O)OCC(C)(C)C2
inactive: viability, T/C (second compound 0.000949 µM, first compound 0.000949 µM) 104% | viability, T/C (second compound 0.000949 µM, first compound 0.003 µM) 123% | viability, T/C (second compound 0.000949 µM, first compound 0.00949 µM) 109% | viability, T/C (second compound 0.000949 µM, first compound 0.03 µM) 104% | viability, T/C (second compound 0.000949 µM, first compound 0.0949 µM) 97.8% | viability, T/C (second compound 0.000949 µM, first compound 0.3 µM) 94.8% | viability, T/C (second compound 0.003 µM, first compound 0.000949 µM) 98.2% | viability, T/C (second compound 0.003 µM, first compound 0.003 µM) 135% | viability, T/C (second compound 0.003 µM, first compound 0.00949 µM) 129% | viability, T/C (second compound 0.003 µM, first compound 0.03 µM) 99.6% | viability, T/C (second compound 0.003 µM, first compound 0.0949 µM) 90.2% | viability, T/C (second compound 0.003 µM, first compound 0.3 µM) 94.9% | viability, T/C (second compound 0.00949 µM, first compound 0.000949 µM) 116% | viability, T/C (second compound 0.00949 µM, first compound 0.003 µM) 96.5% | viability, T/C (second compound 0.00949 µM, first compound 0.00949 µM) 126% | viability, T/C (second compound 0.00949 µM, first compound 0.03 µM) 91.1% | viability, T/C (second compound 0.00949 µM, first compound 0.0949 µM) 92% | viability, T/C (second compound 0.00949 µM, first compound 0.3 µM) 96.3% | viability, T/C (second compound 0.03 µM, first compound 0.000949 µM) 109% | viability, T/C (second compound 0.03 µM, first compound 0.003 µM) 104% | viability, T/C (second compound 0.03 µM, first compound 0.00949 µM) 110% | viability, T/C (second compound 0.03 µM, first compound 0.03 µM) 101% | viability, T/C (second compound 0.03 µM, first compound 0.0949 µM) 96.9% | viability, T/C (second compound 0.03 µM, first compound 0.3 µM) 84.3% | viability, T/C (second compound 0.0949 µM, first compound 0.000949 µM) 107% | viability, T/C (second compound 0.0949 µM, first compound 0.003 µM) 118% | viability, T/C (second compound 0.0949 µM, first compound 0.00949 µM) 124% | viability, T/C (second compound 0.0949 µM, first compound 0.03 µM) 110% | viability, T/C (second compound 0.0949 µM, first compound 0.0949 µM) 119% | viability, T/C (second compound 0.0949 µM, first compound 0.3 µM) 76.7% | viability, T/C (second compound 0.3 µM, first compound 0.000949 µM) 136% | viability, T/C (second compound 0.3 µM, first compound 0.003 µM) 144% | viability, T/C (second compound 0.3 µM, first compound 0.00949 µM) 145% | viability, T/C (second compound 0.3 µM, first compound 0.03 µM) 113% | viability, T/C (second compound 0.3 µM, first compound 0.0949 µM) 108% | viability, T/C (second compound 0.3 µM, first compound 0.3 µM) 88.2%
> 300 nM: IC50 (second compound 0.000949 µM) | IC50 (second compound 0.003 µM) | IC50 (second compound 0.00949 µM) | IC50 (second compound 0.03 µM) | IC50 (second compound 0.0949 µM) | IC50 (second compound 0.3 µM)

C=CC(=O)Nc1cc(Nc2nccc(-c3cn(C)c4ccccc34)n2)c(OC)cc1N(C)CCN(C)C + CCn1c(-c2cccnc2C(C)OC)c2c3cc(ccc31)N1CCOC(CC(NC(=O)C(C(C)C)N(C)C(=O)C3(F)CCN(C(=O)C#CC(C)(C)N(C)C)CC3)C(=O)N3CCCC(N3)C(=O)OCC(C)(C)C2)C1
inactive: viability, T/C [1] 99% | viability, T/C [2] 126% | viability, T/C [3] 127% | viability, T/C [4] 92% | viability, T/C [5] 86% | viability, T/C [6] 123% | viability, T/C [7] 109% | viability, T/C [8] 177% | viability, T/C [9] 108% | viability, T/C [10] 81% | viability, T/C [11] 92.6% | viability, T/C [12] 88% | viability, T/C [13] 88% | viability, T/C [14] 188% | viability, T/C [15] 98% | viability, T/C [16] 84.8% | viability, T/C [17] 91.5% | viability, T/C [18] 119% | viability, T/C [19] 102% | viability, T/C [20] 140% | viability, T/C [21] 113% | viability, T/C [22] 114% | viability, T/C [23] 86.9% | viability, T/C [24] 97.4% | viability, T/C [25] 95.8% | viability, T/C [26] 153% | viability, T/C [27] 93.9% | viability, T/C [28] 98.5% | viability, T/C [29] 87.1% | viability, T/C [30] 124% | viability, T/C [31] 85.7% | viability, T/C [32] 134% | viability, T/C [33] 99.5% | viability, T/C [34] 102% | viability, T/C [35] 97.2% | viability, T/C [36] 121%
> 1000 nM: IC50 (second compound 0.000949 µM) | IC50 (second compound 0.003 µM) | IC50 (second compound 0.00949 µM) | IC50 (second compound 0.03 µM) | IC50 (second compound 0.0949 µM) | IC50 (second compound 0.3 µM)

O=C(c1ccc(F)c(F)c1Nc1ccc(I)cc1F)N1CC(O)([C@@H]2CCCCN2)C1 + CCn1c(-c2cccnc2C(C)OC)c2c3cc(ccc31)N1CCOC(CC(NC(=O)C(C(C)C)N(C)C(=O)C3(F)CCN(C(=O)C#CC(C)(C)N(C)C)CC3)C(=O)N3CCCC(N3)C(=O)OCC(C)(C)C2)C1
73.8 nM: IC50 (second compound 0.3 µM)
125 nM: IC50 (second compound 0.003 µM)
25 nM: IC50 (second compound 0.0949 µM)
inactive: viability, T/C [1] 66.2% | viability, T/C [2] 80.3% | viability, T/C [3] 78.2% | viability, T/C [4] 41.3% | viability, T/C [5] 30.4% | viability, T/C [6] 17.1% | viability, T/C [7] 70.2% | viability, T/C [8] 74.1% | viability, T/C [9] 71.4% | viability, T/C [10] 42.2% | viability, T/C [11] 42.6% | viability, T/C [12] 14.7% | viability, T/C [13] 74.3% | viability, T/C [14] 90% | viability, T/C [15] 48.3% | viability, T/C [16] 59.2% | viability, T/C [17] 29.2% | viability, T/C [18] 22.5% | viability, T/C [19] 82.8% | viability, T/C [20] 75.3% | viability, T/C [21] 70.3% | viability, T/C [22] 56% | viability, T/C [23] 41.6% | viability, T/C [24] 21% | viability, T/C [25] 67.2% | viability, T/C [26] 81.3% | viability, T/C [27] 43.8% | viability, T/C [28] 33.7% | viability, T/C [29] 37.9% | viability, T/C [30] 20.6% | viability, T/C [31] 64.3% | viability, T/C [32] 91.2% | viability, T/C [33] 53.7% | viability, T/C [34] 46.6% | viability, T/C [35] 30.1% | viability, T/C [36] 17.6%
93.5 nM: IC50 (second compound 0.00949 µM)
74.2 nM: IC50 (second compound 0.000949 µM)
165 nM: IC50 (second compound 0.03 µM)
